Test results reported in patent publication US20050208058A1, “Compositions and methods for modulating cell division” (priority 2003, published 2005).
d = 2'-deoxy (DNA)

Tests used:
Type in all cases: cell-based, human
[1] = test system: p53; assay: Immunofluorescence of p53 and phosphorylated p53 (α-Pser33-p53) localization; details: vs silamin
Method: A number of experiments were conducted to determine if p53 is required for the cell cycle arrest phenotype described herein. FACS analysis of tandem siRNA-treated cells was performed as described in Example 2. BrDU and DAPI imaging was performed as described in Example 2. Intracellular p53 was visualized using anti-p53 antibody that is specific for activated p53 (i.e., p53 phosphorylated at Serine 33) (“α-Pser33-p53” provided by Yoichi Taya and described in Kishis et al., J. Biol. Chem., 276:39115-3922, 2001)
Translocation of p53 into the nucleus caused by depletion of centrosomal proteins was also observed by immunofluorescence. […] Relatively little p53 translocated from the cytoplasm to the nucleus of silamin.
An antibody specifically reactive for phosphorylated p53 (α-Pser33-p53) was used to determine the phosphorylated state of p53 that accumulates in the nucleus as a result of GCP2 gene product depletion. In FIG. 6F, the left panels depict cells treated with silamin; the right panels depict cells treated with siGCP2. […] The two upper panels show a merged view of (i) the bottom panels and (ii) the same cells stained with DAPI. […] This nuclear localization is confirmed by the overlapping DAPI staining.

[2] = test system: RPE cells; assay: Ki-67 staining of siRNA-treated cells; details: vs silamin; FIG. 2B
Method: To further study the effects of silencing centrosomal genes, the following cell cycle experiments were performed using RPE cells. In immunofluorescence experiments, cells were delivered by OLIGOFECTAMINE in a media solution containing between 1-100 nanomolar concentration of siRNAs. After 4 hours of incubation with lipofectamine, cells were washed, and cell cycle progression was assayed by (i) treating cells with 5-Bromo-2′-deoxyuridine (BrDU from Sigma, St Louis, Mo.) for 24 hours and staining for BrDU or (ii) staining cells with antibody to Ki-67 (BD Biosciences) according to manufacturer's instructions. BrDU treatment and staining were performed as follows: after 50-70 hours incubation with siRNA, BrDU was added to cells at a final concentration of 5 μg/ml. Cells were fixed in −20° C. methanol and then treated with 2N HCL at 22° C. for 30 minutes, incubated with 1:500 mouse anti-BrdU antibody (Becton Dickinson, Palo Alto, Calif.), and labeled with 1:1,000 goat FITC-mouse antibody (Molecular Probes, Inc.). Cells were also treated with 4′,6-diamidino-2-phenylindole (DAPI) (Molecular Probes) according to the manufacturer's instructions. Cells were prepared, imaged, and the resulting images were deconvolved as described in Example 1.
FIG. 2B confirms the results in FIG. 2A using a different immunofluorescence marker for cell cycle progression. […]

[3] = test system: GCP2; assay: Immunofluorescence of GCP2 at the centrosome after siRNA treatment; details: vs siLamin; FIG. 1B
Method: To test the ability of siRNAs to silence centrosomal gene products, cells were treated with siRNAs for 24 hours. Cells were diploid, telomerase-immortalized human retinal pigment epithelial (RPE1) cells (hTERT-RPE1s from Clontech, Palo Alto, Calif.) (see Morales et al., Nat Genet, 21:115-118, 1999). siRNAs directed to δ-tubulin (SEQ ID NO:2), γ-tubulin (SEQ ID NO:4), GCP2 (SEQ ID NO:5), GCP3(SEQ ID NO:6), cNAP1 (SEQ ID NO:8), PCM1 (SEQ ID NO:9), ninein (SEQ ID NO:21), NEK2a (SEQ ID NO:10), centrin2 (SEQ ID NO:12), CDC14A (SEQ ID NO:13), gapcena (SEQ ID NO:15), nemo (SEQ ID NO:16), pericentrin (SEQ ID NO:23), lamin A/C (CUGGACUUCCAGAAGAACA, SEQ ID NO: 24) zyxin (UGUGGCUGUCAACGAACUC, SEQ ID NO:25), and p53 (GGACAAGGGUUGGGCUGGG, SEQ ID NO:26) were made as complementary single stranded 19-mer siRNAs with 3′ dTdT overhangs (Dharmacon Inc., Lafayette, Colo.), deprotected, annealed and delivered into cells using OLIGOFECTAMINE® from Invitrogen (Carlsbad, Calif.). Nucleotides were delivered in media containing up to 100 nanomolar concentrations of siRNAs. […]
FIG. 1B compares cells treated with siRNA to Lamin (siLamin, left panel) and GCP2 (siGCP2, right panel). Oval shaped fluorescence staining indicates nuclear DNA (large arrow). […]

For “UCUCGUACUCCAGAAGACU (siRNA; RNA, 3' dTdT, backbone not given here) [siGCP2, siRNA directed to GCP2]”, the “p53 accumulation in nucleus (immunofluorescence)” value ([1]; FIG. 6E) was “substantially more p53 accumulated in nucleus”, the “localization of activated p53 (α-Pser33-p53 staining)” value ([1]; FIG. 6F) was “activated p53 was detected only in the nucleus” and the “cells expressing Ki67” value [2] was “Very few cells”. For the same sequence, the “GCP2 level in the centrosome (immunofluorescence)” value [3] was “reduced levels of GCP2 in the centrosome”.
